Results from patent US20060173015A1, “Cyclohexyldiamines as selective alpha 1a/1d adrenoreceptor antagonists for the treatment of benign prostatic hypertrophy and lower urinary tract symptoms” (priority 2004, published 2006).

What was measured:
α1d-AR = target: T1, α1d-AR (Homo sapiens, UniProt P25100); experiment: α1-Adrenergic receptor radio-ligand (125I-HEAT) binding assay, α1d subtype; conditions: COS-7 cell membranes, 125I-HEAT; read-out: Receptor Binding, Ki α1d-AR
T1 construct: expressed in transfected cells; host or cells: COS-7
T1 sequence (P25100 1-572): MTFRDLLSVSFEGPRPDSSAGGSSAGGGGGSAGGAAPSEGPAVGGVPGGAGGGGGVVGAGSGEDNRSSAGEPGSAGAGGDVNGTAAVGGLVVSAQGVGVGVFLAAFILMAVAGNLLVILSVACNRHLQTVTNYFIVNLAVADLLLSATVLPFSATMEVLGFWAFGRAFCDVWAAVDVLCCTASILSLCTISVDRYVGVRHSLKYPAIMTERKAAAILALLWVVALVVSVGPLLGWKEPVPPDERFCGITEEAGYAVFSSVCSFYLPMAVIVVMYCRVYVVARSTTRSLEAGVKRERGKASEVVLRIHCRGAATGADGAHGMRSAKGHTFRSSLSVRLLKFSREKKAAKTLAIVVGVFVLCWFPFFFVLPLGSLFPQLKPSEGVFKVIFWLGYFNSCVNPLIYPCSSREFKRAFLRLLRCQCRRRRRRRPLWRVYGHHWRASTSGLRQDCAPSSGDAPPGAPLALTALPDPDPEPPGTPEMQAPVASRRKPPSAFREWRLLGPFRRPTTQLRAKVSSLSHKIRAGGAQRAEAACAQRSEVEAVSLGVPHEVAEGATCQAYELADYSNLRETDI

IUP = experiment: Phenylephrine-induced IUP in a conscious canine model; assay type: in vivo; conditions: conscious dog
Procedure: In-Vivo Evaluation of α1-Adrenergic Antagonists on IUP and MAP in a Conscious Canine Model
An anesthetized dog was fitted with a balloon catheter for the measurement of changes in prostatic IUP and with a number of implanted pressure transducers and telemetry transmitters for measuring MAP.
The pressor effects of challenge doses […] of the α-adrenergic agonist phenylephrine upon IUP and MAP were measured before and at various time points after a single dose (p.o.) of an α-adrenergic antagonist test compound (Compound 69) of the present invention.
Each treatment group was dosed with a test compound (0.1, 0.3, 1.0 and 3.0 mg/kg) in four separate experiments. The first challenge dose of phenylephrine for each treatment group was administered at the time of the test compound dose (time 0). The value for the first challenge dose represents an average of up to three challenge doses administered prior to time 0.
Subsequent challenge doses for all treatment groups were administered at 30 min. then one hour and two hours after time 0.
The final challenge doses for the 0.1 and 0.3 mg/kg groups were administered at four and six hours after time 0. The final challenge doses for the 1.0 mg/kg group were administered at four, six and eight hours after time 0. The final challenge doses for the 3.0 mg/kg group were administered at four, six, 12 and 24 hours after time 0.
A 7F Fogarty balloon catheter lubricated with a water-soluble jelly was inserted into the urethra and advanced into the bladder (approximately 40 cm). The balloon was inflated with approximately water (0.2 mL). The catheter was slowly withdrawn from the bladder to just past the point of first resistance from the bladder neck in order to position the balloon within the prostatic urethra. The balloon was then inflated to approximately 0.7 mL. The balloon port of the catheter was connected to a Gould Statham pressure transducer, the output of which was connected to the pressure input of a Physio Control VSM1 Patient Monitor.
A test compound was administered via the cephalic or saphenous vein using an appropriately sized IV catheter (Surflo, Terumo Medical Corporation or equivalent).
Prior to test compound administration, IUP and MAP responses to an individualized dose of phenylephrine (either 10 or 15 μg/kg IV, depending on the individual animal's response) was repeated 2 to 3 times to establish a baseline response. After test compound administration, the individualized phenylephrine dose was administered to each animal at predetermined intervals over a period of up to 24 hours.
Data for phenylephrine-induced changes in IUP and MAP were tabulated for each treatment group and each experiment. A mean value and standard deviation for the phenylephrine-induced changes to the effect of a test compound on IUP and MAP at each dose was calculated and tabulated for each treatment group over the length of the study.

Ki (α1d-AR): 0.92 nM
SMILES: COc1ccc(S(=O)(=O)N[C@H]2CC[C@@H](N3CCN(c4ccccc4OCC(F)(F)F)CC3)CC2)cc1OC [Cpd 69, 3,4-Dimethoxy-N-cis-(4-{4-[2-(2,2,2-trifluoro-ethoxy)-phenyl]-piperazin-1-yl}-cyclohexyl)-benzenesulfonamide]
IUP, normalized % of baseline (mean) (IUP; 0.1 mg/kg p.o., 0 hrs (baseline)): 100%
IUP, normalized % of baseline (mean) (IUP; 0.1 mg/kg p.o., 0.5 hrs after dose): 87.3%
IUP, normalized % of baseline (mean) (IUP; 0.1 mg/kg p.o., 1 hrs after dose): 78.3%
IUP, normalized % of baseline (mean) (IUP; 0.1 mg/kg p.o., 2 hrs after dose): 78.8%
IUP, normalized % of baseline (mean) (IUP; 0.1 mg/kg p.o., 4 hrs after dose): 82.5%
IUP, normalized % of baseline (mean) (IUP; 0.1 mg/kg p.o., 6 hrs after dose): 86.5%
IUP, normalized % of baseline (mean) (IUP; 0.3 mg/kg p.o., 0 hrs (baseline)): 100%
IUP, normalized % of baseline (mean) (IUP; 0.3 mg/kg p.o., 0.5 hrs after dose): 63.0%
IUP, normalized % of baseline (mean) (IUP; 0.3 mg/kg p.o., 1 hrs after dose): 47.0%
IUP, normalized % of baseline (mean) (IUP; 0.3 mg/kg p.o., 2 hrs after dose): 51.1%
IUP, normalized % of baseline (mean) (IUP; 0.3 mg/kg p.o., 4 hrs after dose): 70.0%
IUP, normalized % of baseline (mean) (IUP; 0.3 mg/kg p.o., 6 hrs after dose): 84.4%
IUP, normalized % of baseline (mean) (IUP; 1.0 mg/kg p.o., 0 hrs (baseline)): 100%
IUP, normalized % of baseline (mean) (IUP; 1.0 mg/kg p.o., 0.5 hrs after dose): 32.9%
IUP, normalized % of baseline (mean) (IUP; 1.0 mg/kg p.o., 1 hrs after dose): 20.6%
IUP, normalized % of baseline (mean) (IUP; 1.0 mg/kg p.o., 2 hrs after dose): 28.6%
IUP, normalized % of baseline (mean) (IUP; 1.0 mg/kg p.o., 4 hrs after dose): 49.0%
IUP, normalized % of baseline (mean) (IUP; 1.0 mg/kg p.o., 6 hrs after dose): 66.3%
IUP, normalized % of baseline (mean) (IUP; 1.0 mg/kg p.o., 8 hrs after dose): 70.4%
IUP, normalized % of baseline (mean) (IUP; 3.0 mg/kg p.o., 0 hrs (baseline)): 100%
IUP, normalized % of baseline (mean) (IUP; 3.0 mg/kg p.o., 0.5 hrs after dose): 5.2%
IUP, normalized % of baseline (mean) (IUP; 3.0 mg/kg p.o., 1 hrs after dose): 2.2%
IUP, normalized % of baseline (mean) (IUP; 3.0 mg/kg p.o., 2 hrs after dose): 7.0%
IUP, normalized % of baseline (mean) (IUP; 3.0 mg/kg p.o., 4 hrs after dose): 17.1%
IUP, normalized % of baseline (mean) (IUP; 3.0 mg/kg p.o., 6 hrs after dose): 31.6%
IUP, normalized % of baseline (mean) (IUP; 3.0 mg/kg p.o., 12 hrs after dose): 67.7%
IUP, normalized % of baseline (mean) (IUP; 3.0 mg/kg p.o., 24 hrs after dose): 93.8%
